{
  "source": "paper PMC5218480",
  "about": "(PLoS ONE, 2017)",
  "test_system": "MV-4-11 cells",
  "test": "Gene expression microarray analysis (Affymetrix PrimeView) and GSEA",
  "assay_type": "cell-based, human",
  "parameters": "RFU PODN (11730768_x_at) / Fold change /veh PODN (11730768_x_at) / RFU LINC00158 (11744669_a_at) / Fold change /veh LINC00158 (11744669_a_at) / RFU DUSP10 (11751237_a_at) / Fold change /veh DUSP10 (11751237_a_at) / RFU ID3 (11757404_x_at) / Fold change /veh ID3 (11757404_x_at) / RFU PLEKHG5 (11737974_s_at) / Fold change /veh PLEKHG5 (11737974_s_at) / RFU LRRC4B (11730491_at) / Fold change /veh LRRC4B (11730491_at) / RFU GIMAP4 (11747438_a_at) / Fold change /veh GIMAP4 (11747438_a_at) / RFU KRT8 (11758183_x_at) / Fold change /veh KRT8 (11758183_x_at) / RFU CNN1 (11734310_a_at) / Fold change /veh CNN1 (11734310_a_at) / RFU VPS37D (11726825_at) / Fold change /veh VPS37D (11726825_at) / RFU C10orf10 (11716522_x_at) / Fold change /veh C10orf10 (11716522_x_at) / RFU KIR2DL2 /// KIR2DL4 /// KIR2DL5A /// KIR2DL5B /// KIR2DS1 /// KIR2DS2 /// KIR2DS3 /// KIR2DS4 /// KIR3DL3 /// KIR3DL3 /// KIR3DS1 (11738374_at) / Fold change /veh KIR2DL2 /// KIR2DL4 /// KIR2DL5A /// KIR2DL5B /// KIR2DS1 /// KIR2DS2 /// KIR2DS3 /// KIR2DS4 /// KIR3DL3 /// KIR3DL3 /// KIR3DS1 (11738374_at) / RFU C1QL1 (11718748_at) / Fold change /veh C1QL1 (11718748_at) / RFU TMPRSS4 (11747572_a_at) / Fold change /veh TMPRSS4 (11747572_a_at) / RFU HAMP (11756126_x_at) / Fold change /veh HAMP (11756126_x_at) / RFU RNFT2 (11725882_a_at) / Fold change /veh RNFT2 (11725882_a_at) / RFU NR4A2 (11747474_a_at) / Fold change /veh NR4A2 (11747474_a_at) / RFU ABCC12 (11746883_a_at) / Fold change /veh ABCC12 (11746883_a_at) / RFU TMEM136 (11760407_x_at) / Fold change /veh TMEM136 (11760407_x_at) / RFU CLDN22 /// WWC2 (11732394_at) / Fold change /veh CLDN22 /// WWC2 (11732394_at) / RFU HLA-DPB1 (11760878_x_at) / Fold change /veh HLA-DPB1 (11760878_x_at) / RFU SPINT1 (11716480_a_at) / Fold change /veh SPINT1 (11716480_a_at) / RFU GAP43 (11754022_s_at) / Fold change /veh GAP43 (11754022_s_at) / RFU A4GNT (11735810_at) / Fold change /veh A4GNT (11735810_at) / RFU PRB3 (11715151_x_at) / Fold change /veh PRB3 (11715151_x_at) / RFU TUBB4B (11761932_at) / Fold change /veh TUBB4B (11761932_at) / RFU CAPN14 (11732068_a_at) / Fold change /veh CAPN14 (11732068_a_at) / RFU TMCC2 (11721928_a_at) / Fold change /veh TMCC2 (11721928_a_at) / RFU IRGQ (11745062_a_at) / Fold change /veh IRGQ (11745062_a_at) / RFU FAM174B (11720279_a_at) / Fold change /veh FAM174B (11720279_a_at) / RFU TMPRSS4 (11748680_a_at) / Fold change /veh TMPRSS4 (11748680_a_at) / RFU FAM212B (11763350_a_at) / Fold change /veh FAM212B (11763350_a_at) / RFU PLEKHG5 (11743358_a_at) / Fold change /veh PLEKHG5 (11743358_a_at) / RFU ZSCAN30 (11745921_a_at) / Fold change /veh ZSCAN30 (11745921_a_at) / RFU CMKLR1 (11741424_a_at) / Fold change /veh CMKLR1 (11741424_a_at) / RFU LOC101060620 /// MAPK8IP1 (11723275_at) / Fold change /veh LOC101060620 /// MAPK8IP1 (11723275_at) / RFU SPTSSB (11747773_x_at) / Fold change /veh SPTSSB (11747773_x_at) / RFU PRSS12 (11739890_at) / Fold change /veh PRSS12 (11739890_at) / RFU BIN1 (11741810_x_at) / Fold change /veh BIN1 (11741810_x_at) / RFU WNT11 (11732464_a_at) / Fold change /veh WNT11 (11732464_a_at) / RFU C10orf10 (11716521_a_at) / Fold change /veh C10orf10 (11716521_a_at) / RFU C5orf56 (11738089_at) / Fold change /veh C5orf56 (11738089_at) / RFU CYB561 (11721691_x_at) / Fold change /veh CYB561 (11721691_x_at) / RFU ANKRD19P (11752326_a_at) / Fold change /veh ANKRD19P (11752326_a_at) / RFU OR2T12 /// OR2T33 /// OR2T8 (11738714_s_at) / Fold change /veh OR2T12 /// OR2T33 /// OR2T8 (11738714_s_at) / RFU VCAN (11748164_a_at) / Fold change /veh VCAN (11748164_a_at) / RFU JSRP1 (11732532_at) / Fold change /veh JSRP1 (11732532_at) / RFU KRTAP10-11 (11738290_x_at) / Fold change /veh KRTAP10-11 (11738290_x_at) / RFU MYO3A (11730013_a_at) / Fold change /veh MYO3A (11730013_a_at) / RFU EBF3 (11725865_a_at) / Fold change /veh EBF3 (11725865_a_at) / RFU CAMK2N1 (11719241_x_at) / Fold change /veh CAMK2N1 (11719241_x_at) / RFU C5orf56 (11738088_a_at) / Fold change /veh C5orf56 (11738088_a_at) / RFU OLFML3 (11715873_a_at) / Fold change /veh OLFML3 (11715873_a_at) / RFU LOC100653217 /// NTM (11731650_a_at) / Fold change /veh LOC100653217 /// NTM (11731650_a_at) / RFU MAPK11 (11762145_a_at) / Fold change /veh MAPK11 (11762145_a_at) / RFU FIZ1 (11724087_x_at) / Fold change /veh FIZ1 (11724087_x_at) / RFU OASL (11726364_x_at) / Fold change /veh OASL (11726364_x_at) / RFU SOX15 (11748057_x_at) / Fold change /veh SOX15 (11748057_x_at) / RFU CD79A (11719716_a_at) / Fold change /veh CD79A (11719716_a_at) / RFU HIST1H1D (11736915_at) / Fold change /veh HIST1H1D (11736915_at) / RFU CASKIN2 (11723855_a_at) / Fold change /veh CASKIN2 (11723855_a_at) / RFU LOC730098 (11760151_x_at) / Fold change /veh LOC730098 (11760151_x_at) / RFU OR4N2 (11742367_at) / Fold change /veh OR4N2 (11742367_at) / RFU PRRT2 (11749266_a_at) / Fold change /veh PRRT2 (11749266_a_at) / RFU SNX32 (11753110_a_at) / Fold change /veh SNX32 (11753110_a_at) / RFU CDHR5 (11726645_a_at) / Fold change /veh CDHR5 (11726645_a_at) / RFU RCAN1 (11760418_a_at) / Fold change /veh RCAN1 (11760418_a_at) / RFU FAM167A (11723789_a_at) / Fold change /veh FAM167A (11723789_a_at) / RFU FAM26E (11764081_at) / Fold change /veh FAM26E (11764081_at) / RFU ISYNA1 (11749810_s_at) / Fold change /veh ISYNA1 (11749810_s_at) / RFU ACY1 (11761880_at) / Fold change /veh ACY1 (11761880_at) / RFU 11764098_at / Fold change /veh 11764098_at / RFU SAMD14 (11745864_x_at) / Fold change /veh SAMD14 (11745864_x_at) / RFU NPB (11741838_a_at) / Fold change /veh NPB (11741838_a_at) / RFU TMPRSS6 (11731388_a_at) / Fold change /veh TMPRSS6 (11731388_a_at) / RFU KRTAP10-2 (11738614_at) / Fold change /veh KRTAP10-2 (11738614_at) / RFU ARHGAP8 /// PRR5-ARHGAP8 (11727945_x_at) / Fold change /veh ARHGAP8 /// PRR5-ARHGAP8 (11727945_x_at) / RFU KRTAP5-7 /// NADSYN1 (11734609_at) / Fold change /veh KRTAP5-7 /// NADSYN1 (11734609_at) / RFU RASL12 (11751679_a_at) / Fold change /veh RASL12 (11751679_a_at) / RFU CDKN2B (11736163_a_at) / Fold change /veh CDKN2B (11736163_a_at) / RFU PRF1 (11729649_at) / Fold change /veh PRF1 (11729649_at) / RFU, ZNF638 /// ZNF638-IT1 / Fold change vs veh, ZNF638 /// ZNF638-IT1 / RFU, PANK3 / Fold change vs veh, PANK3 / RFU, SH3YL1 / Fold change vs veh, SH3YL1 / RFU, ZEB2 / Fold change vs veh, ZEB2 / RFU, NRIP1 / Fold change vs veh, NRIP1 / RFU, PTTG1IP / Fold change vs veh, PTTG1IP / RFU, CAPN2 / Fold change vs veh, CAPN2 / RFU, MED14 / Fold change vs veh, MED14 / RFU, SNORA58 / Fold change vs veh, SNORA58 / RFU, C1orf63 / Fold change vs veh, C1orf63 / RFU, LRRFIP1 / Fold change vs veh, LRRFIP1 / RFU, NDUFAF7 / Fold change vs veh, NDUFAF7 / RFU, SLC12A2 / Fold change vs veh, SLC12A2 / RFU, IBTK / Fold change vs veh, IBTK / RFU, ESF1 / Fold change vs veh, ESF1 / Fold change vs veh, TMEM50B / RFU, TAOK1 / Fold change vs veh, TAOK1 / RFU, ACBD3 / Fold change vs veh, ACBD3 / RFU, TMA16 / Fold change vs veh, TMA16 / RFU, RWDD3 / Fold change vs veh, RWDD3 / RFU, BCAT1 / Fold change vs veh, BCAT1 / RFU, EDEM3 / Fold change vs veh, EDEM3 / RFU, TMEM33 / Fold change vs veh, TMEM33 / RFU, WDR75 / Fold change vs veh, WDR75 / RFU, AHCTF1 / Fold change vs veh, AHCTF1 / RFU, TFRC / Fold change vs veh, TFRC / RFU, ZDHHC17 / Fold change vs veh, ZDHHC17 / RFU, NOM1 / Fold change vs veh, NOM1 / RFU, ARL8B / Fold change vs veh, ARL8B / RFU, ZBTB11 / Fold change vs veh, ZBTB11 / RFU, TAMM41 / Fold change vs veh, TAMM41 / RFU, KIAA1704 /// LOC100996395 / Fold change vs veh, KIAA1704 /// LOC100996395 / RFU, ING1 / Fold change vs veh, ING1 / RFU, TRMT61B / Fold change vs veh, TRMT61B / RFU, FUBP3 / Fold change vs veh, FUBP3 / RFU, TP53 / Fold change vs veh, TP53 / RFU, TNKS2 / Fold change vs veh, TNKS2 / RFU, ZFP14 / Fold change vs veh, ZFP14 / RFU, ACTR2 / Fold change vs veh, ACTR2 / RFU, PPP3R1 / Fold change vs veh, PPP3R1 / RFU, PIK3R1 / Fold change vs veh, PIK3R1 / RFU, HNRNPA1 / Fold change vs veh, HNRNPA1 / RFU, RNF170 / Fold change vs veh, RNF170 / RFU, ZNF28 / Fold change vs veh, ZNF28 / RFU, RNGTT / Fold change vs veh, RNGTT / RFU, OGT / Fold change vs veh, OGT / RFU, BRD1 / Fold change vs veh, BRD1 / RFU, MARS / Fold change vs veh, MARS / RFU, ZNF655 / Fold change vs veh, ZNF655 / RFU, FAHD1 / Fold change vs veh, FAHD1 / RFU, BDP1 / Fold change vs veh, BDP1 / RFU, LRRCC1 / Fold change vs veh, LRRCC1 / RFU, ARID1A / Fold change vs veh, ARID1A / RFU, ZNF146 / Fold change vs veh, ZNF146 / RFU, ZNF330 / Fold change vs veh, ZNF330 / RFU, GPN3 / Fold change vs veh, GPN3 / RFU, C9orf123 / Fold change vs veh, C9orf123 / RFU, N4BP2L2 / Fold change vs veh, N4BP2L2 / RFU, ARFIP1 / Fold change vs veh, ARFIP1 / RFU, FAM179B / Fold change vs veh, FAM179B / RFU, BCL10 / Fold change vs veh, BCL10 / RFU, UHRF1BP1L / Fold change vs veh, UHRF1BP1L / RFU, BET1 / Fold change vs veh, BET1 / RFU, CNOT2 / Fold change vs veh, CNOT2 / RFU, ZNF268 / Fold change vs veh, ZNF268 / Fold change vs veh, ZNF507 / RFU, DGCR2 / Fold change vs veh, DGCR2 / RFU, WDSUB1 / Fold change vs veh, WDSUB1 / Fold change vs veh, HSP90B1 /// MIR3652 / RFU, ADSS / Fold change vs veh, ADSS / RFU, GK / Fold change vs veh, GK / RFU, ZNF148 / Fold change vs veh, ZNF148 / RFU, TAF9 / Fold change vs veh, TAF9 / RFU, SLC1A5 / Fold change vs veh, SLC1A5 / RFU, SLMO2 / Fold change vs veh, SLMO2 / RFU, ABCC4 / Fold change vs veh, ABCC4 / RFU, LOC101060439 /// RAP1B / Fold change vs veh, LOC101060439 /// RAP1B / RFU, RFX7 / Fold change vs veh, RFX7 / RFU, GTPBP10 / Fold change vs veh, GTPBP10 / RFU, CNEP1R1 / Fold change vs veh, CNEP1R1 / RFU, BIVM-ERCC5 /// ERCC5 / Fold change vs veh, BIVM-ERCC5 /// ERCC5 / RFU, ILF3 / Fold change vs veh, ILF3 / RFU 11762660_at / Fold change /veh 11762660_at / RFU VCAN (11757783_s_at) / Fold change /veh VCAN (11757783_s_at) / RFU DDX43 (11728927_at) / Fold change /veh DDX43 (11728927_at) / RFU KRT8 (11758188_x_at) / Fold change /veh KRT8 (11758188_x_at) / RFU NKD1 (11759106_at) / Fold change /veh NKD1 (11759106_at) / RFU SRD5A1 (11742802_a_at) / Fold change /veh SRD5A1 (11742802_a_at) / RFU TPSAB1 /// TPSB2 (11721975_s_at) / Fold change /veh TPSAB1 /// TPSB2 (11721975_s_at) / RFU GSTM3 (11746129_a_at) / Fold change /veh GSTM3 (11746129_a_at) / RFU IL23R (11737362_x_at) / Fold change /veh IL23R (11737362_x_at) / RFU TMEM51 (11727254_a_at) / Fold change /veh TMEM51 (11727254_a_at) / RFU PIWIL2 (11732686_x_at) / Fold change /veh PIWIL2 (11732686_x_at) / RFU ORM1 (11744905_x_at) / Fold change /veh ORM1 (11744905_x_at) / RFU CCDC152 (11743942_at) / Fold change /veh CCDC152 (11743942_at) / RFU ECM1 (11717891_a_at) / Fold change /veh ECM1 (11717891_a_at) / RFU IL23R (11748794_a_at) / Fold change /veh IL23R (11748794_a_at) / RFU TNFAIP8L3 (11732012_x_at) / Fold change /veh TNFAIP8L3 (11732012_x_at) / RFU MBOAT4 (11741988_at) / Fold change /veh MBOAT4 (11741988_at) / RFU 11764193_at / Fold change /veh 11764193_at / RFU TMEM53 (11763286_at) / Fold change /veh TMEM53 (11763286_at) / RFU MAGEB2 (11727129_at) / Fold change /veh MAGEB2 (11727129_at) / RFU TMEM200A (11744735_a_at) / Fold change /veh TMEM200A (11744735_a_at) / RFU CCDC152 (11751479_a_at) / Fold change /veh CCDC152 (11751479_a_at) / RFU FAM211A (11726209_a_at) / Fold change /veh FAM211A (11726209_a_at) / RFU RGS16 (11746705_a_at) / Fold change /veh RGS16 (11746705_a_at) / RFU VCAN (11755009_s_at) / Fold change /veh VCAN (11755009_s_at) / RFU RHOB (11743442_s_at) / Fold change /veh RHOB (11743442_s_at) / RFU RGS16 (11720943_a_at) / Fold change /veh RGS16 (11720943_a_at) / RFU RGS16 (11720944_at) / Fold change /veh RGS16 (11720944_at) / RFU, VPS4B / Fold change vs veh, VPS4B / RFU, CREB1 / Fold change vs veh, CREB1 / RFU, DNAJC13 / Fold change vs veh, DNAJC13 / RFU, GNAQ / Fold change vs veh, GNAQ / RFU, CDK5R1 / Fold change vs veh, CDK5R1 / RFU, ZRANB3 / Fold change vs veh, ZRANB3 / RFU, CUL4A / Fold change vs veh, CUL4A / RFU, CCNY / Fold change vs veh, CCNY / RFU, UFL1 / Fold change vs veh, UFL1 / RFU, COG3 / Fold change vs veh, COG3 / RFU, DIAPH2 / Fold change vs veh, DIAPH2 / RFU, SKA2 / Fold change vs veh, SKA2 / RFU, AFF3 / Fold change vs veh, AFF3 / RFU, LMF1 / Fold change vs veh, LMF1 / RFU, IPO11 / Fold change vs veh, IPO11 / RFU, DFFB / Fold change vs veh, DFFB / RFU, FOXP1 / Fold change vs veh, FOXP1 / RFU, CARD8 / Fold change vs veh, CARD8 / RFU, STRN3 / Fold change vs veh, STRN3 / RFU, ADK / Fold change vs veh, ADK / RFU, RASSF2 / Fold change vs veh, RASSF2 / RFU, WIPF1 / Fold change vs veh, WIPF1 / RFU, LARP1B / Fold change vs veh, LARP1B / RFU, RASA1 / Fold change vs veh, RASA1 / RFU, RB1 / Fold change vs veh, RB1 / RFU, PPFIA1 / Fold change vs veh, PPFIA1 / RFU, MAT2A / Fold change vs veh, MAT2A / RFU, CCT5 / Fold change vs veh, CCT5 / RFU, WDR92 / Fold change vs veh, WDR92 / RFU, CUX1 / Fold change vs veh, CUX1 / RFU, TTC7A / Fold change vs veh, TTC7A / RFU, TMEM135 / Fold change vs veh, TMEM135 / RFU, DEPTOR / Fold change vs veh, DEPTOR / RFU, CPM / Fold change vs veh, CPM / RFU, DNAJB6 / Fold change vs veh, DNAJB6 / RFU, CACNA2D3 / Fold change vs veh, CACNA2D3 / RFU, DTX4 / Fold change vs veh, DTX4 / RFU, TFCP2 / Fold change vs veh, TFCP2 / RFU, GMCL1 /// GMCL1P1 / Fold change vs veh, GMCL1 /// GMCL1P1 / RFU, AEBP2 / Fold change vs veh, AEBP2 / RFU, SNHG1 /// SNORD22 /// SNORD25 /// SNORD26 /// SNORD27 /// SNORD28 /// SNORD29 /// SNORD31 / Fold change vs veh, SNHG1 /// SNORD22 /// SNORD25 /// SNORD26 /// SNORD27 /// SNORD28 /// SNORD29 /// SNORD31 / Fold change (Aza/veh), C12orf56 (ProbeSet 11735607_a_at) / Fold change (ACY-1035/veh), C12orf56 (ProbeSet 11735607_a_at) / Fold change (Aza/veh), FGFR1OP (ProbeSet 11751329_s_at) / Fold change (ACY-1035/veh), FGFR1OP (ProbeSet 11751329_s_at) / Fold change (Aza/veh), VPS36 (ProbeSet 11739960_a_at) / Fold change (ACY-1035/veh), VPS36 (ProbeSet 11739960_a_at) / RFU SYPL1 (11715823_x_at) / Fold change /veh SYPL1 (11715823_x_at) / RFU IGFBP7 (11715501_s_at) / Fold change /veh IGFBP7 (11715501_s_at) / RFU REEP3 (11722064_at) / Fold change /veh REEP3 (11722064_at) / RFU IGLL1 (11728026_x_at) / Fold change /veh IGLL1 (11728026_x_at): dose or concentration left out as unconfirmed",
  "conditions": "ProbeSet 11717876_a_at; LIST D",
  "data": [
    {"molecule": "Nc1ccc(-c2cccs2)cc1NC(=O)c1ccc2c(c1)cc(C1CC1)n2CCN1CCOCC1", "note": "[ACY-1035]", "values": [
      {"measurement": "Fold change vs veh, PPFIA1", "result": 0.87}
    ]}
  ]
}
